{"source": "patent EP2818477B1", "about": "“L-LYSYL-L-GLUTAMYL-L-TRYPTOPHAN FOR CORRECTING METABOLIC SYNDROME” (Obshestvo S Organichennoj Otvetstvennostju \"CytoNIR\", priority 2012, dated 2016)", "key": {"[1]": {"experiment": "Hyperlipidaemia induced by polyoxyethylene sorbitan monooleate (polysorbate-80) in rats, serum lipids", "format": "in vivo, Ratten", "conditions": "blood serum 24 h after polysorbate-80 300 mg/kg i.p.", "procedure": "Die Versuche wurden an 51 Outbred-Ratten-Männchen der Linie Sprague-Dawley mit Körpergewicht von 220 - 240 g durchgeführt.\nDie untersuchten Peptide wurden täglich in einer Tagesdosis von 20 und 200 µg/kg in den Magen im Laufe von 5 Tagen bis Hyperlipidämie-Ansatz verabreicht. Als Vergleichspräparat wurde ein Präparat gegen Hyperlipidämie aus der Gruppe von Fibric-Säure-Derivaten oder Fibraten - Bezafibrat (2-(b-parachlorobenzoyl-aminoethyl)phenoxy-2-methylpropinsäure) in der Dosis 50,0 mg/kg verwendet.\nDie Hyperlipidämie wurde bei Ratten mittels intraperitonealer Einführung von Polyoxyethylen-sorbitan-monooleat (Polysorbat-80, Mischung von Polyäthylen-glykol-Esteren von Anhydrosorbit Monooleat) in einer Dosis von 300 mg/kg verabreicht. 24 Stunden später wurden die Ratten eingeschläfert. Danach wurden Triglyzeridspiegel, Gesamtcholesterin und Lipoproteid-Cholesterin mit hoher Dichte (HDL) im Blutserum der Tiere gemessen.\nInfolge der Untersuchung der spezifischen pharmakologischen Aktivität wurde Folgendes festgestellt. Im Hintergrund der durch Polyoxyethylen-sorbitan-monooleat verursachten Hyperlipidämie üben Peptide eine hypolipidämische Wirkung aus. Das zeigt sich durch Senkung des Triglyzeridspiegels, des Gesamtcholesterinspiegels sowie durch Steigerung des HDL-Cholesterins im Blut (Tabelle 1) an. Tabelle 1"}, "[2]": {"experiment": "Alimentary atherogenic dyslipoproteinaemia (hypercholesterolaemic diet, 24 days) in rats, serum lipids", "format": "in vivo, Ratten", "conditions": "100 µg/kg i.p. daily", "excerpt": "Der Versuch wurde an 40 weißen Ratten-Männchen der Wistar-Linie mit einem Körpergewicht von 230 - 250 g durchgeführt. Die Tiere wurden in 4 Gruppen aufgeteilt. Gruppe 1: Referenzgruppe (Intakt), Gruppen 2 bis 4: Versuchsgruppen.\nDie Versuchstiere wurden auf hypercholesterinämische (HCÄ) Diät gesetzt, um eine alimentäre atherogene Dyslipoproteinämie (DLP) zu modellieren. Die HCÄ- Diät umfasste mind. 7,5 % Cholesterin (CS), 45 % Fette und einen Überschuss an Vitamin D2 (500 000 IE). Gleichzeitig mit der Entwicklung von DLP erhielt die 3. Gruppe von Tieren Lys-Glu-Trp in einer Dosis von 100 µg/kg intraperitoneal täglich. Die 4. Gruppe von Tieren erhielt Lipanthyl 25 mg/kg intraperitoneal Lipanthyl 200M der Fa. Lab.Fournier S.A. (Frankreich) oder Fenofibrate, die zur Behandlung von Hyperlipoproteinämie verwendet werden, die sich mit keiner Diät mehr behandeln lässt. Der Versuch dauerte 24 Tage. […] Sie waren wohlgenährt und hatten glattes glänzendes Fell. Die Tiere aus der 2. Gruppe hatten zerzaustes Fell und zeigten Übererregbarkeit, was durch einen Überschuss an Vitamin D2 erklärt werden kann.\nNach dem Versuchsende wurde eine Dekapitation der Tiere vorgenommen. Danach wurden der Gesamt-Cholesterinspiegel (CS), Triglyzeridspiegel (TG), Cholesteringehalt der Lipoproteine hoher Dichte (CS HDL) im Blutserum der Tiere beurteilt und die Cholesterin-Konzentration der Lipoproteine niedriger Dichte (CS LDL) sowie der Cholesterin-HDL Quotient (LDL/HDL-Verhältnis) berechnet. Die genannten Kennziffern sind der Tabelle 2 zu entnehmen. Tabelle 2\nBei der Beurteilung wurden der Zustand und das Gewicht von Leber, Milz und Nebennieren berücksichtigt."}, "[3]": {"format": "in vivo", "conditions": "500 µg oral twice daily for 30 days", "excerpt": "Die Untersuchung bezog sich auf Patienten mit einer verifizierten Diagnose eines metabolischen Syndroms. Die Diagnose wurde bei Erfüllung folgender Kriterien gestellt: arterielle Hypertension, gestörte Glukosetoleranz, Fettsucht, Dyslipidämie. Es wurden insgesamt 85 Patienten mit metabolischem Syndrom (50 Frauen, 35 Männer) untersucht. Das durchschnittliche Alter betrug bei den Männern 54,6 ± 12 Jahre, bei den Frauen 55,6 ± 13,0 Jahre.\nKriterien für die Einbeziehung der Patienten in die Forschung: • 1. Alter: Älter als 45 Jahre für Männer und Frauen. • 2. Vorhandensein von klinischen Merkmalen eines metabolischen Syndroms. • 3. Vorhandensein von verifizierter Pathologie des Magen-Darm-Kanals (Verstopfungen, Reizdarmsyndrom, Cholezystitis, Pankreatitis, Fettleber). • 4. Zustimmung des Patienten.\nDie Kriterien für den Ausschluss der Kranken aus der Untersuchung waren das Vorhandensein von familiärer Dyslipidämie, akuter Pathologie des Magen-Darm-Kanals, Merkmalen der Helmintheninvasion und onkologischer und systematischer Pathologie.\nDie Kombination der angewandten pathogenetischen Therapie unter Einsatz solcher Mittel wie ACE-Hemmer, Ca2^+-Kanal-Blocker, harntreibende Mittel, β-Blocker und deren Dosierung wurde aufgrund klinischer Indikationen festgelegt. Bei der Untersuchung wurden auch die mit Nitropräparaten sowie mit Statinen behandelten Kranken ausgeschlossen. Alle Kranken wurden einer hypocholesterinämisierenden Diät unterzogen, die eine Einnahme von Kleie einschließt.\nTripeptid Lys-Glu-Trp-NH2 wurde 47 Patienten oral in einer Dosis von 500 µg pro Gabe zweimal täglich im Laufe von 30 Tagen verabreicht. Die Unterbrechung zwischen den Behandlungen betrug 2 Monate.\nDie Kranken wurden im Laufe von 12 Monaten beobachtet. Die Untersuchung umfasste 3 Phasen: Ursprungsphase (zum Zeitpunkt der Diagnoseüberprüfung), 6 Monate und ein Jahr später.\nFolgende Parameter wurden bei allen Kranken analysiert: Geschlecht, Alter zum Zeitpunkt der Untersuchung, Krankheitsdauer, Dauer der arteriellen Hypertension, Fettsucht, Dyslipidämie. Die Untersuchung der Kranken umfasste eine Einschätzung der Risikofaktoren, wie z. B. Vererbung, Fettsucht, Zuckerkrankheit, koronare Herzkrankheit. Dabei wurde eine Sozialanamnese, d. h. Besonderheiten des Lebensstils, Ernährungsgewohnheiten, analysiert. Es wurden auch anthropometrische Messungen durchgeführt: Wuchs, Körpergewicht, Body-Maß- Index. Alle Kranken wurden einer planmäßigen Laboruntersuchung unterzogen und zwar: klinische Blutanalyse und Untersuchung von biochemischen Blutkennwerten. Es wurden Hämoglobingehalt, Erythrozytenmenge, Leukozyten-gehalt, Lymphozytengehalt ermittelt. Unter den biochemischen Serumkennwerten wurden Gesamteiweißgehalt, Albumine, Triglyzeridspiegel, Cholesterinspiegel, LDL, HDL, LDL/HDL-Verhältnis ermittelt. Die durchgeführten Instrumentenunter-suchungen umfassten Zuckerbelastungstest, Abdomen-Sonographie, Stuhluntersuchungen, Schilddrüsenfunktionsprüfung (Hormonstatus)."}, "[4]": {"experiment": "Alloxan diabetes in rats, blood glucose and response to insulin", "format": "in vivo, Ratten", "procedure": "Bekanntlich ist Alloxan-Diabetes durch Schädigung der ß-Zellen von Pankreas gekennzeichnet und wird von ausgeprägter Hyperglykämie infolge eines Insulinmangels und einer Aktivierung von Glukoneogenese begleitet.\nDer Versuch wurde an 18 weißen Outbred-Ratten-Männchen mit einem durchschnittlichen Körpergewicht von 349 ± 19 g durchgeführt. Nach der Ermittlung von Glukosekonzentration im Blut wurden alle Tiere in 2 Gruppen aufgeteilt. Danach erhielten alle Tiere einmalig intravenös je 1 ml Alloxanlösung (\"Spofa\") in einer Dosis von 35 mg/kg. 15 Tage danach wurde den Tieren aus der Referenzgruppe je 0,3 ml der 0,9 %igen NaCl-Lösung einmal täglich intraperitoneal verabreicht. Die Ratten aus der Hauptgruppe wurden mit Tripeptid Lys-Glu-Trp-NH2 in einer Dosis von 3 µg (in 0,3 ml der 0,9 %igen NaCl-Lösung) pro Ratte innerhalb von 11 Tagen behandelt. Eine separate Gruppe bestand aus 7 gesunden Ratten mit einem ähnlichen Körpergewicht.\nDanach wurde allen Tieren Insulin (0,3 ME) intravenös verabreicht und die Glukosekonzentration im Blut gemessen."}, "[5]": {"conditions": "20 µg/kg daily into the stomach for 5 days"}, "[6]": {"conditions": "200 µg/kg daily into the stomach for 5 days"}, "[7]": {"conditions": "3 µg per rat i.p. for 11 days, 30 min after insulin 0,3 ME i.v."}}, "note": "Where two headings read alike, the source gives them in different places. Marks after values point to notes of the source that are not given here. Where a SMILES comes first, the peptide text is derived from it."}
{"molecule": "NCCCC[C@H](N)C(=O)N[C@@H](CCC(=O)O)C(=O)N[C@@H](Cc1c[nH]c2ccccc12)C(=O)O", "note": "[Lys-Glu-Trp, L-Lysyl -L-Glutamyl-L-Tryptophan] (H-Lys-Glu-Trp-OH)", "values": [{"measurement": "HDL- Cholesterin", "setting": "[1]; [5]", "value": "0,97±0,04 mMol/l"}, {"measurement": "Triglyzeridspiegel", "setting": "[1]; [5]", "value": "0,58±0,05 mMol/l"}, {"measurement": "Gesamtcholesterin", "setting": "[1]; [6]", "value": "2,10±0,17 mMol/l"}, {"measurement": "HDL- Cholesterin", "setting": "[1]; [6]", "value": "0,60±0,02 mMol/l"}, {"measurement": "Triglyzeridspiegel", "setting": "[1]; [6]", "value": "0,67±0,05 mMol/l"}, {"measurement": "Wirkung auf das relative Gewicht von Leber, Milz und Nebennieren", "setting": "[2]; HCÄ diet 24 days", "value": "keine ungünstige Wirkung"}, {"measurement": "Triglyzeridspiegel", "setting": "[2]; HCÄ diet 24 days, blood serum", "value": "0,96±0,16 mMol/l"}, {"measurement": "Aussehen der Tiere", "setting": "[2]; during the 24-day experiment", "value": "normgerechtes Aussehen"}, {"measurement": "CS LDL", "setting": "[2]; calculated, HCÄ diet 24 days", "value": "0,71±0,24 mMol/l"}, {"measurement": "LDL/HDL-Verhältnis", "setting": "[2]; calculated, HCÄ diet 24 days", "value": "2,21±0,58* *"}, {"measurement": "CS", "setting": "[2]; total cholesterol, HCÄ diet 24 days, blood serum", "value": "1,70±0,27* * mMol/l"}]}
{"molecule": "CC(C)(Oc1ccc(CCNC(=O)c2ccc(Cl)cc2)cc1)C(=O)O", "note": "[Bezafibrat, 2-(b-parachlorobenzoyl-aminoethyl)phenoxy-2-methylpropinsäure]", "values": [{"measurement": "Gesamtcholesterin", "setting": "[1]; 50,0 mg/kg (comparator)", "value": "1,34±0,03 mMol/l"}, {"measurement": "HDL- Cholesterin", "setting": "[1]; 50,0 mg/kg (comparator)", "value": "0,98±0,05 mMol/l"}, {"measurement": "Triglyzeridspiegel", "setting": "[1]; 50,0 mg/kg (comparator)", "value": "0,55±0,06 mMol/l"}]}
{"molecule": "NCCCC[C@H](N)C(=O)N[C@@H](CCC(=O)O)C(=O)N[C@@H](Cc1c[nH]c2ccccc12)C(N)=O", "note": "[Lys-Glu-Trp-NH2] (H-Lys-Glu-Trp-NH2)", "values": [{"measurement": "Cholesterin-Konzentration", "setting": "[3]; 2 months between courses, 12 months observation, with basic therapy, Fig. 1", "value": "zur Cholesterin-Konzentrationssenkung beitrug"}, {"measurement": "Konzentration der Lipoproteine mit hoher Dichte", "setting": "[3]; in complex therapy", "value": "Konzentrationssteigerung der Lipoproteine mit hoher Dichte"}, {"measurement": "drucksenkender Effekt", "setting": "[3]; in complex therapy", "value": "schnelleren und stabileren drucksenkenden Effekt"}, {"measurement": "LDL/HDL-Verhältnis", "setting": "[3]; with basic therapy, Fig. 3", "value": "ausgeprägte Verminderung des LDL/HDL-Verhältnisses"}, {"measurement": "Konzentration der Triglyzeride", "setting": "[3]; 3rd examination after one year, Fig. 2", "value": "maximale Konzentrationssenkung der Triglyzeride"}, {"measurement": "Gesamtcholesterin", "setting": "[1]; [5]", "value": "1,69±0,15 mMol/l"}, {"measurement": "HDL- Cholesterin", "setting": "[1]; [5]", "value": "1,05±0,02 mMol/l"}, {"measurement": "Triglyzeridspiegel", "setting": "[1]; [5]", "value": "0,76±0,14 mMol/l"}, {"measurement": "Gesamtcholesterin", "setting": "[1]; [6]", "value": "1,22±0,15 mMol/l"}, {"measurement": "HDL- Cholesterin", "setting": "[1]; [6]", "value": "1,09±0,02 mMol/l"}, {"measurement": "Triglyzeridspiegel", "setting": "[1]; [6]", "value": "0,88±0,12 mMol/l"}, {"measurement": "Nebenwirkungen, Komplikationen, Arzneiabhängigkeit", "setting": "[4]; 3 µg per rat i.p. for 11 days", "value": "keine Nebenwirkungen, Komplikationen und keine Arzneiabhängigkeit"}, {"measurement": "Glukosekonzentration im Blut (mg %) Ausgangsspiegel", "setting": "[4]; 3 µg per rat i.p. for 11 days, starting 15 days after alloxan 35 mg/kg i.v., before insulin", "value": "221,5±11,2 mg %"}, {"measurement": "Glukosekonzentration im Blut (mg %) 30 Minuten nach Insulineinführung", "setting": "[4]; [7]", "value": "123,6±8,3 mg %"}, {"measurement": "Senkung von Glukosespiegel im Vergleich zum Ausgangsspiegel (%)", "setting": "[4]; [7]", "value": "44,2%"}, {"measurement": "Senkung des Glukosespiegels im Blut", "setting": "[4]; day 28 of the study, on average, 3 µg per rat i.p. for 11 days", "value": "34,8%"}, {"measurement": "Letalität", "setting": "[4]; main group, 3 µg per rat i.p. for 11 days", "value": "Senkung der Letalität"}, {"measurement": "Glukosespiegelsenkung nach der Insulineinführung gegenüber der Vergleichsgruppe", "setting": "[4]; versus alloxan diabetes + NaCl group", "value": "fast zweimal größere Glukosespiegelsenkung"}]}
